Each structure is given as a SMILES string.

For 75 compounds, log p results are on record in US20110245242A1, “Heterocyclically Substituted Anilinopyrimides” (Bayer CropScience AG, priority 2008, published 2011).

A short description of the data set: log P by LC-MS, method [b], acid range pH 2.7. Type of data set: physicochemical. The conditions noted are these: pH 2.7. The method, then:
The log P values were measured in accordance with EEC Directive 79/831 Annex V.A8 by HPLC (High Performance Liquid Chromatography) on reversed-phase columns (C 18) using the methods below:
[b] The LC-MS determination in the acid range was carried out at pH 2.7 using the mobile phases 0.1% aqueous formic acid and acetonitrile (contains 0.1% formic acid)
linear gradient from 10% acetonitrile to 95% acetonitrile.
On to `COCC(C)Nc1nc(Nc2cccc(N3C(=O)OC[C@@H]3C(C)C)c2)ncc1Cl` (stereo partly drawn) [Example 117], for which the log p was 2.1[b].
The same measure for `CC1(C)CC(=O)N(c2cccc(Nc3ncc(C(F)(F)F)c(NC4CCC4)n3)c2)C1=O` [Example 192]: 3.03[b]; for `CC1COC(=O)N1c1ccc(Nc2ncc(Cl)c(NCC(F)F)n2)cc1` (stereo not drawn) [Example 158]: 1.68[b].
With `CC1CCC(=O)N1c1cccc(Nc2ncc(Cl)c(N(C)C3CC3)n2)c1` (stereo not drawn) [Example 180], the log p is 2.26[b].
The result for `CC1COC(=O)N1c1cccc(Nc2ncc(Cl)c(N(C)C3CC3)n2)c1` (stereo not drawn) [Example 176] reads 2.29[b].
The result for `CC(C)Nc1nc(Nc2cccc(N3C(=O)CCC3C)c2)ncc1Br` (stereo not drawn) [Example 152] reads 1.73[b].
The same measure for `CC(C)Nc1nc(Nc2cccc(N3C(=O)C(C)CC3C)c2)ncc1Br` (stereo not drawn) [Example 149]: 1.98[b].
As to `O=C1OCCN1c1ccc(Nc2ncc(Cl)c(NCC(F)(F)F)n2)cc1` [Example 23], the log p was 1.83[b].
The result for `CC1CCN(c2cccc(Nc3ncc(Cl)c(NC4CCC4)n3)c2)C1=O` (stereo not drawn) [Example 113] reads 2.01[b].
The same measure for `O=c1ccccn1-c1cccc(Nc2ncc(Cl)c(NC3CCC3)n2)c1` [Example 16]: 2.17[b].
The result for `CC(C)Nc1nc(Nc2cccc(N3C(=O)CC(C)C3=O)c2)ncc1Cl` (stereo not drawn) [Example 145] reads 1.59[b]; that for `CC1CC(=O)N(c2cccc(Nc3ncc(Cl)c(NC4CC4)n3)c2)C1` (stereo not drawn) [Example 96], 1.75[b].
With `O=C1OCC(c2ccccc2)N1c1cccc(Nc2ncc(Br)c(NC3CC3)n2)c1` (stereo not drawn) [Example 91], the log p was 2.3[b].
The same measure for `CC(C)Nc1nc(Nc2ccc(N3CCOC3=O)cc2)ncc1Cl` [Example 64]: 1.49[b]; for `CC(C)[C@H]1COC(=O)N1c1cccc(Nc2ncc(Cl)c(NCC(F)F)n2)c1` [Example 112]: 2.39[b]; for `CC1COC(=O)N1c1ccc(Nc2ncc(Br)c(NCC(F)F)n2)cc1` (stereo not drawn) [Example 165]: 1.78[b].
The same measure for `CC(C)C1COC(=O)N1c1cccc(Nc2ncc(Br)c(NCC3CC3)n2)c1` (stereo not drawn) [Example 128]: 2.28[b]; for `O=C1COCCN1c1cccc(Nc2ncc(Cl)c(NCC(F)F)n2)c1` [Example 159]: 1.46[b].
For `CC(C)[C@H]1COC(=O)N1c1cccc(Nc2ncc(Cl)c(NCC3CC3)n2)c1` [Example 109], the log p was 2.17[b].
With `COCC(C)Nc1nc(Nc2cccc(N3CCOC3=O)c2)ncc1Br` (stereo not drawn) [Example 69], the log p is 1.61[b].
In the case of `CCC1COC(=O)N1c1cccc(Nc2ncc(Br)c(NC3CCC3)n2)c1` (stereo not drawn) [Example 34], the log p is 2.24[b].
On to `C[C@H]1COC(=O)N1c1cccc(Nc2ncc(Br)c(NC3CC3)n2)c1` [Example 95], for which the log p is 1.65[b].
The result for `CC1(C)CN(c2cccc(Nc3ncc(Cl)c(NC4CC4)n3)c2)C1=O` [Example 53] reads 2.07[b]; that for `CC(C)Nc1nc(Nc2ccc(N3C(=O)OCC3C)cc2)ncc1Br` (stereo not drawn) [Example 150], 1.68[b].
For `O=C1OCC(c2ccccc2)N1c1cccc(Nc2ncc(Cl)c(NC3CCC3)n2)c1` (stereo not drawn) [Example 89], the log p was 2.65[b].
With `O=C1COCCN1c1cccc(Nc2ncc(Cl)c(NCC(F)(F)F)n2)c1` [Example 173], the log p is 1.73[b].
The result for `COCC(C)Nc1nc(Nc2cccc(N3CCOC3=O)c2)ncc1Cl` (stereo not drawn) [Example 67] reads 1.54[b]; that for `CC1CCC(=O)N1c1cccc(Nc2ncc(Cl)c(NCC(F)F)n2)c1` (stereo not drawn) [Example 160], 1.81[b]; that for `CC(C)[C@@H]1COC(=O)N1c1cccc(Nc2ncc(Cl)c(NC3CCC3)n2)c1` [Example 101], 2.38[b].
The same measure for `CC1(C)CC(=O)N(c2cccc(Nc3ncc(Cl)c(NCC(F)F)n3)c2)C1=O` [Example 156]: 2.01[b].
The same measure for `CCC1COC(=O)N1c1cccc(Nc2ncc(Cl)c(NC3CCC3)n2)c1` (stereo not drawn) [Example 35]: 2.09[b].
Consider `O=C1N(CCCl)CCN1c1cccc(Nc2ncc(Cl)c(NC3CC3)n2)c1` [Example 286], for which the log p was 1.82[b].
Consider `CC1(C)CN(c2cccc(Nc3ncc(Br)c(NC4CC4)n3)c2)C1=O` [Example 52], for which the log p was 2.18[b].
The result for `CCC1CC1Nc1nc(Nc2cccc(N3CCCC3=O)c2)ncc1Cl` (stereo not drawn) [Example 242] reads 1.99[b]; that for `CN(c1nc(Nc2cccc(N3CCCC3=O)c2)ncc1C(F)(F)F)C1CCCC1` [Example 319], 3.56[b]; that for `O=C1CCCCN1c1cccc(Nc2ncc(Br)c(NCC(F)F)n2)c1` [Example 135], 1.75[b].
The result for `CCC1CCC(=O)N1c1cccc(Nc2ncc(C(F)(F)F)c(NC3CC3)n2)c1` (stereo not drawn) [Example 255] reads 2.75[b].
The same measure for `CC(C)Nc1nc(Nc2cccc(N3C(=O)CC(C)(C)C3=O)c2)ncc1Br` [Example 148]: 1.93[b].
As for `CN(c1cccc(N2CCCC2=O)c1)c1ncc(Cl)c(NC2CCC2)n1` [Example 83], the log p was 1.63[b].
On to `O=C1OCCN1c1cccc(Nc2ncc(Cl)c(NCC(F)(F)F)n2)c1` [Example 175], for which the log p was 2.01[b].
The same measure for `CC1CC(=O)N(c2cccc(Nc3ncc(Br)c(NC4CCC4)n3)c2)C1` (stereo not drawn) [Example 98]: 2.16[b].
The result for `CC(C)[C@H]1COC(=O)N1c1cccc(Nc2ncc(Cl)c(NCC(F)(F)F)n2)c1` [Example 111] reads 2.81[b]; that for `CC1COC(=O)N1c1cccc(Nc2ncc(Cl)c(NCC(F)F)n2)c1` (stereo not drawn) [Example 155], 1.81[b]; that for `CC1CC(=O)N(c2cccc(Nc3ncc(Br)c(NCC(F)F)n3)c2)C1=O` (stereo not drawn) [Example 168], 1.78[b].
The same measure for `CC1CC(=O)N(c2cccc(Nc3ncc(Cl)c(NCC(F)F)n3)c2)C1=O` (stereo not drawn) [Example 161]: 1.68[b]; for `CC1CCC(=O)N1c1cccc(Nc2ncc(Br)c(NCC3CC3)n2)c1` (stereo not drawn) [Example 133]: 1.77[b].
As for `CC(C)[C@@H]1COC(=O)N1c1cccc(Nc2ncc(Cl)c(NC3CC3)n2)c1` [Example 75], the log p was 2.39[b].
The same measure for `CC1(C)CC(=O)N(c2cccc(Nc3ncc(Br)c(NCC(F)F)n3)c2)C1=O` [Example 164]: 2.08[b].
The result for `CC(C)Nc1nc(Nc2cccc(N3C(=O)CCC3C)c2)ncc1Cl` (stereo not drawn) [Example 144] reads 1.66[b]; that for `CC1CC(=O)N(c2cccc(Nc3ncc(Br)c(NC4CC4)n3)c2)C1=O` (stereo not drawn) [Example 66], 1.78[b]; that for `CC1CC(=O)N(c2cccc(Nc3ncc(Cl)c(NC4CCC4)n3)c2)C1` (stereo not drawn) [Example 97], 2.02[b].
As for `CC(CF)Nc1nc(Nc2cccc(N3CCCC3=O)c2)ncc1C(F)(F)F` (stereo not drawn) [Example 298], the log p is 2.48[b].
The same measure for `CC1(C)CC(=O)N(c2cccc(Nc3ncc(Cl)c(NC4CCC4)n3)c2)C1=O` [Example 29]: 2.07[b]; for `CNc1nc(Nc2cccc(N3CCCC3=O)c2)ncc1C(F)(F)F` [Example 323]: 1.63[b].
Regarding `CC1(C)CC(=O)N(c2cccc(Nc3ncc(Br)c(NCC4CC4)n3)c2)C1=O` [Example 132], the log p is 2.02[b].
The same measure for `COCC(C)Nc1nc(Nc2cccc(N3C(=O)OC[C@H]3C)c2)ncc1Br` (stereo partly drawn) [Example 183]: 1.71[b]; for `CC1COC(=O)N1c1ccc(Nc2ncc(Cl)c(NCC(F)(F)F)n2)cc1` (stereo not drawn) [Example 172]: 2.06[b].
The result for `CC1CC1Nc1nc(Nc2cccc(N3CCOC3=O)c2)ncc1Cl` (stereo not drawn) [Example 205] reads 1.67[b].
The result for `CC(C)Nc1nc(Nc2cccc(N3C(=O)OC[C@@H]3C(C)C)c2)ncc1Cl` [Example 110] reads 2.1[b].
On to `COCC(C)Nc1nc(Nc2ccc(N3CCOC3=O)cc2)ncc1Cl` (stereo not drawn) [Example 12], for which the log p was 1.46[b].
The result for `CC1CCC(=O)N1c1cccc(Nc2ncc(Cl)c(NC3CCC3)n2)c1` (stereo not drawn) [Example 37] reads 1.83[b].
The same measure for `CC1(C)CC(=O)N(c2cccc(Nc3ncc(Cl)c(NCC(F)(F)F)n3)c2)C1=O` [Example 170]: 2.36[b]; for `CC1CC(C)N(c2cccc(Nc3ncc(Br)c(NC4CCC4)n3)c2)C1=O` (stereo not drawn) [Example 85]: 2.3[b]; for `CC1CC(=O)N(c2cccc(Nc3ncc(Cl)c(NCC4CC4)n3)c2)C1=O` (stereo not drawn) [Example 71]: 1.68[b].
Take `COCC(C)Nc1nc(Nc2cccc(N3CCCC3=O)c2)ncc1Br` (stereo not drawn) [Example 5]: the log p is 1.6[b].
Turning to `CC1CC(Nc2nc(Nc3cccc(N4C(=O)CCC4C)c3)ncc2Br)C1` (stereo not drawn) [Example 317], the log p is 2.17[b].
The result for `CC(C)C1COC(=O)N1c1cccc(Nc2ncc(Br)c(NCC(F)F)n2)c1` (stereo not drawn) [Example 130] reads 2.5[b]; that for `CC1CC(Nc2nc(Nc3cccc(N4C(=O)CCC4=O)c3)ncc2Br)C1` (stereo not drawn) [Example 288], 1.86[b].
The result for `O=C1CCCN1c1cccc(Nc2ncc(C(F)(F)F)c(NC3CCCC3)n2)c1` [Example 303] reads 3.04[b]; that for `CC(C)Nc1nc(Nc2cccc(N3C(=O)OCC3C(C)C)c2)ncc1Br` (stereo not drawn) [Example 129], 2.24[b].
The result for `CC1CC(C)N(c2cccc(Nc3ncc(Cl)c(NCC(F)(F)F)n3)c2)C1=O` (stereo not drawn) [Example 171] reads 2.51[b].
Regarding `CC1CC(=O)N(c2cccc(Nc3ncc(Br)c(NCC4CC4)n3)c2)C1=O` (stereo not drawn) [Example 74], the log p was 1.78[b].
The result for `CC(C)Nc1nc(Nc2ccc(N3C(=O)OCC3C)cc2)ncc1Cl` (stereo not drawn) [Example 142] reads 1.61[b].
Consider `O=C1CCCN1c1cc(Nc2ncc(C(F)(F)F)c(NCC3CC3)n2)ccc1F` [Example 201], for which the log p is 2.41[b].
The result for `O=C1CCCN1c1cccc(Nc2ncc(C(F)(F)F)c(NC3COC3)n2)c1` [Example 322] reads 1.84[b].
